Data reported in ChEMBL document CHEMBL1157561, “Identification of potent pyrazolo[4,3-h]quinazoline-3-carboxamides as multi-cyclin-dependent kinase inhibitors” (J Med Chem, 2010).
In brackets after ≈: the same amount, converted by molar mass.

Assays:
A2780 = experiment: Antiproliferative activity against human A2780 cells after 72 hrs by cell-titer-glo assay; assay type: functional, cell-based; settings: A2780, 72 h
[1] = Solubility at pH 7.0; assay type: physicochemical; settings: buffer
Aurora kinase A = biological target: T1, Aurora kinase A (Homo sapiens, UniProt O14965); experiment: Inhibition of Aurora A
T1 sequence (O14965 whole entry): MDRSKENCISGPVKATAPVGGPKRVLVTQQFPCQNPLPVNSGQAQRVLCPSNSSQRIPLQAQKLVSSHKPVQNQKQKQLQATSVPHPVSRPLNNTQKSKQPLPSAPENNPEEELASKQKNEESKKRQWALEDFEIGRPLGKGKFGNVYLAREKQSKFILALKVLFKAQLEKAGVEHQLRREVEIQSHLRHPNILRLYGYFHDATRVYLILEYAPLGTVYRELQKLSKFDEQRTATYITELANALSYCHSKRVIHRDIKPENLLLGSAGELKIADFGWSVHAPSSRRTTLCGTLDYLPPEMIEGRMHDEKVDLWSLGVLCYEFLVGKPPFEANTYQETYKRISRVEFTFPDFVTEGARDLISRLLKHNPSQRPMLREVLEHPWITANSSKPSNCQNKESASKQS

[2] = biological target: Cyclin-dependent kinase 2/cyclin A (Homo sapiens, UniProt P24941); experiment: Inhibition of CDK2/Cyclin A; assay type: protein-complex assay

| SMILES | IC50 (A2780) [nM] | solubility [1] [µM] | IC50 (Aurora kinase A) [nM] | IC50 [2] [nM] |
| --- | --- | --- | --- | --- |
| CN1CCN(c2ccc(CNc3ncc4c(n3)-c3c(c(C(N)=O)nn3C)CC4)cc2)CC1 | 1580 | 28 (≈ 12.1 µg/mL) | 1290 | 17 |
| Cn1nc(C(=O)N(O)C2CCCCC2)c2c1-c1nc(NC3CCCC3)ncc1CC2 | 3970 | < 1 | 3840 | 296 |
| Cn1nc(C(N)=O)c2c1-c1nc(N)ncc1CC2 | 2200 | > 225 | > 10000 | > 10000 |
| NC(=O)c1nn(-c2ccccn2)c2c1CCc1cnc(NC3CCCC3)nc1-2 | 2160 | 4.9 (≈ 1.84 µg/mL) | > 10000 | 52 |
| CNC(=O)c1nn(C)c2c1CCc1cnc(NC3CCCC3)nc1-2 | > 10000 | 36 (≈ 11.8 µg/mL) | > 10000 | 97 |
| Cn1nc(C(N)=O)c2c1-c1nc(NCCN3CCOCC3)ncc1CC2 | 8660 | 214 (≈ 76.5 µg/mL) | > 10000 | 209 |
| Cn1nc(C(N)=O)c2c1-c1nc(NCCN3CCCCC3)ncc1CC2 | 7600 | 182 (≈ 64.7 µg/mL) | > 10000 | 2490 |
| CN1CCC(Nc2ncc3c(n2)-c2c(c(C(N)=O)nn2C)CC3)CC1 | 2000 | > 225 | > 10000 | 351 |
| CNC(=O)c1nn(C)c2c1CCc1cnc(NC3CCN(C)CC3)nc1-2 | > 10000 | 220 (≈ 78.2 µg/mL) | > 10000 | 4590 |
| Cn1nc(C(N)=O)c2c1-c1nc(NCc3cccnc3)ncc1CC2 | 1390 | 138 (≈ 46.3 µg/mL) | 2310 | 21 |
| COc1cccc(CNc2ncc3c(n2)-c2c(c(C(N)=O)nn2C)CC3)c1 | 1980 | 4.4 (≈ 1.6 µg/mL) | 1140 | 66 |
| CN1CCN(C(=O)N2CCC(Nc3ncc4c(n3)-c3c(c(C(N)=O)nn3C)CC4)CC2)CC1 | 1300 | > 225 | 4710 | 12 |
| Cn1nc(C(N)=O)c2c1-c1nc(NCc3ccc(S(C)(=O)=O)cc3)ncc1CC2 | 2360 | 138 (≈ 56.9 µg/mL) | 890 | 38 |
| COc1ccc(CNc2ncc3c(n2)-c2c(c(C(N)=O)nn2C)CC3)cc1 | 4140 | < 1 | 1450 | 58 |
| CN(C)CCN(C)C(=O)c1nn(C)c2c1CCc1cnc(NC3CCCC3)nc1-2 | 5170 | 189 (≈ 75.1 µg/mL) | > 10000 | > 10000 |
| CC(CN(C)C)NC(=O)c1nn(C)c2c1CCc1cnc(NC3CCCC3)nc1-2 (configuration not stated) | > 10000 | 171 (≈ 68 µg/mL) | > 10000 | 1760 |
| CNC(=O)c1nn(C)c2c1CCc1cnc(NC3CCCCC3)nc1-2 | 8600 | 50 (≈ 17 µg/mL) | > 10000 |  |
| Cn1nc(C(N)=O)c2c1-c1nc(NCCO)ncc1CC2 | 2550 | > 225 | 4600 | 19 |
| Cn1nc(C(N)=O)c2c1-c1nc(NCc3ccccn3)ncc1CC2 | 5120 | 123 (≈ 41.3 µg/mL) | 4640 | 87 |
| CNC(=O)c1nn(C)c2c1CCc1cnc(NC3CCN(C(=O)N4CCN(C)CC4)CC3)nc1-2 | > 10000 | > 10 | > 10000 | 1120 |
| CCN1CCC(Nc2ncc3c(n2)-c2c(c(C(N)=O)nn2C)CC3)CC1 | 2460 | 221 (≈ 78.6 µg/mL) | > 10000 | 149 |
| CNC(=O)c1nn(C)c2c1CCc1cnc(NC3CCN(C(C)=O)CC3)nc1-2 | > 10000 | > 225 | > 10000 | 32 |
| Cn1nc(C(=O)N(O)Cc2ccccc2)c2c1-c1nc(NC3CCCC3)ncc1CC2 | 6140 | < 1 | 4560 | 1370 |
| CN(O)C(=O)c1nn(C)c2c1CCc1cnc(NC3CCCC3)nc1-2 | 5530 | 29 (≈ 9.93 µg/mL) | 3060 | 175 |
| CNC(=O)c1nn(C2CCN(C)CC2)c2c1CCc1cnc(NC3CCCC3)nc1-2 | 1590 | 182 (≈ 74.5 µg/mL) | > 10000 | 59 |

The next compounds have a lower IC50 (A2780) than those just listed; values first:

| IC50 (A2780) [nM] | solubility [1] [µM] | IC50 (Aurora kinase A) [nM] | IC50 [2] [nM] | SMILES |
| --- | --- | --- | --- | --- |
| 1240 | 222 (≈ 74.5 µg/mL) | 1920 | 21 | Cn1nc(C(N)=O)c2c1-c1nc(NCc3ccncc3)ncc1CC2 |
| 1000 | 108 (≈ 49 µg/mL) | 442 | 5 | NC(=O)c1nn(-c2ccc(S(N)(=O)=O)cc2)c2c1CCc1cnc(NC3CCCC3)nc1-2 |
| 933 | > 10 | 1000 | 51 | Cn1nc(C(N)=O)c2c1-c1nc(NCc3ccccc3)ncc1CC2 |
| 920 | 210 (≈ 90.8 µg/mL) | 2140 | 104 | CN1CCN(c2cccc(CNc3ncc4c(n3)-c3c(c(C(N)=O)nn3C)CC4)c2)CC1 |
| 903 | > 10 | 672 | 13 | CC(=O)Nc1ccc(CNc2ncc3c(n2)-c2c(c(C(N)=O)nn2C)CC3)cc1 |
| 840 | < 1 | > 10000 | 23 | NC(=O)c1nn(Cc2ccccc2)c2c1CCc1cnc(NC3CCCC3)nc1-2 |
| 822 | 168 (≈ 74.8 µg/mL) | > 10000 | 25 | CNC(=O)c1nn(C)c2c1CCc1cnc(NC3CCN(C(=O)c4ccccc4)CC3)nc1-2 |
| 567 | < 1 | 1690 | 81 | Cn1nc(C(N)=O)c2c1-c1nc(NCc3ccc(Br)cc3)ncc1CC2 |
| 557 | < 1 | 2310 | 6 | COc1ccc(-n2nc(C(N)=O)c3c2-c2nc(NC4CCCC4)ncc2CC3)cc1 |
| 506 | 83 (≈ 32.8 µg/mL) | > 10000 | > 10000 | CN1CCN(C(=O)c2nn(C)c3c2CCc2cnc(NC4CCCC4)nc2-3)CC1 |
| 480 | < 1 | 4050 | 20 | NC(=O)c1nn(-c2ccccc2)c2c1CCc1cnc(NC3CCCC3)nc1-2 |
| 410 | < 1 | > 10000 | 4 | Cn1nc(C(N)=O)c2c1-c1nc(NC3CCCCC3)ncc1CC2 |
| 370 | < 1 | > 10000 | 5 | NC(=O)c1nn(CC(F)(F)F)c2c1CCc1cnc(NC3CCCC3)nc1-2 |
| 330 | 27 (≈ 9.24 µg/mL) | 6040 | 8 | NC(=O)c1nn(CCO)c2c1CCc1cnc(NC3CCCC3)nc1-2 |
| 245 | 13 (≈ 4.06 µg/mL) | > 10000 | 2 | Cn1nc(C(N)=O)c2c1-c1nc(NC3CCCC3)ncc1CC2 |
| 70 | 179 (≈ 75.8 µg/mL) | 1970 | 7 | CC(=O)N1CCC(n2nc(C(N)=O)c3c2-c2nc(NC4CCCC4)ncc2CC3)CC1 |
| 46 | 181 (≈ 71.6 µg/mL) | > 10000 | 6 | CN1CCC(n2nc(C(N)=O)c3c2-c2nc(NC4CCCC4)ncc2CC3)CC1 |
